Measurements reported in paper PMC10046946, “Novel Phthalic-Based Anticancer Tyrosine Kinase Inhibitors: Design, Synthesis and Biological Activity” (Current Issues in Molecular Biology, 2023).
Values joined by “and” are separate entries in the source; they are usually repeats but may differ in a detail not shown here. Equal values may be shown once. Read-outs that look alike come from different tables or passages of the source.

Columns and labels:
[1] = tested on: K562 (chronic myelogenous leukemia); test: MTT cell proliferation assay, K562; format: cell-based; details: Homo sapiens, K562, 72 h of exposition, read-out: Anti-proliferative activity IC50, K562
Summary of the method: (§1)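 IC50 values come from an MTT proliferation assay; sorafenib, nilotinib and lapatinib served as reference standards.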

PDGFRα = target: T1, PDGFRα (Homo sapiens, UniProt P16234); test: ADP-Glo kinase assay, PDGFRα; format: biochemical
T1 construct: purchased Promega
Description: (§2) The ADP-Glo kinase assay (Promega, Madison, WI, USA) was used to screen compounds 5, 8–10, 14, 17, 19 and 24 for the tyrosine kinase (Kinase Selectivity Profiling System TK-1, Promega, Madison, WI, USA) and serine/threonine kinase (Kinase Selectivity Profiling System Other/CK-1, Promega, Madison, WI, USA) inhibition effects according to the manufacturer’s technical manual. The luminescence data were analyzed as described in our prior work.
(§3) The selectivity of the potential kinase inhibitor against a specific protein kinase or a specific family of kinases was investigated using the Kinase Selectivity Profiling System TK-1, Other/CK-1 and ADP-Glo™ Kinase assay kit (Promega, Madison, WI, USA).

KDR (VEGFR-2) = target: T2, KDR (VEGFR-2) (Homo sapiens, UniProt P35968); test: ADP-Glo kinase assay, KDR; format: biochemical
T2 construct: purchased Promega

HER2 = target: T3, HER2 (Homo sapiens, UniProt P04626); test: ADP-Glo kinase assay, HER2; format: biochemical
T3 construct: purchased Promega
Description: as §2, §3

A549 (lung carcinoma) = test: MTT cell proliferation assay, A549; format: cell-based; details: Homo sapiens, A549, 72 h of exposition, read-out: Anti-proliferative activity IC50, A549
Summary of the method: as §1

[2] = tested on: HL-60 (promyelocytic leukemia); test: MTT cell proliferation assay, HL-60; format: cell-based; details: Homo sapiens, HL-60, 72 h of exposition, read-out: Anti-proliferative activity IC50, HL-60
Summary of the method: as §1

[3] = tested on: HepG2 (human liver cancer); test: MTT cell proliferation assay, HepG2; format: cell-based; details: HepG2, 72 h of exposition, read-out: Anti-proliferative activity IC50, HepG2
Summary of the method: as §1

HER4 = target: T4, HER4 (Homo sapiens, UniProt Q15303); test: ADP-Glo kinase assay, HER4; format: biochemical
T4 construct: purchased Promega
Description: as §2, §3

Aurora B = target: T5, Aurora B (Homo sapiens, UniProt Q96GD4); test: ADP-Glo kinase assay, Aurora B; format: biochemical
T5 construct: purchased Promega
Description: as §2, §3

[4] = tested on: OKP-GS (renal cell carcinoma); test: MTT cell proliferation assay, OKP-GS; format: cell-based; details: 72 h of exposition, read-out: Anti-proliferative activity IC50, OKP-GS
Summary of the method: as §1

InsR (insulin receptor) = target: T6, InsR (insulin receptor) (Homo sapiens, UniProt P06213); test: ADP-Glo kinase assay, InsR; format: biochemical
T6 construct: purchased Promega
Description: as §2, §3

Aurora A = target: T7, Aurora A (Homo sapiens, UniProt O14965); test: ADP-Glo kinase assay, Aurora A; format: biochemical
T7 construct: purchased Promega
T7 sequence (O14965 1-403): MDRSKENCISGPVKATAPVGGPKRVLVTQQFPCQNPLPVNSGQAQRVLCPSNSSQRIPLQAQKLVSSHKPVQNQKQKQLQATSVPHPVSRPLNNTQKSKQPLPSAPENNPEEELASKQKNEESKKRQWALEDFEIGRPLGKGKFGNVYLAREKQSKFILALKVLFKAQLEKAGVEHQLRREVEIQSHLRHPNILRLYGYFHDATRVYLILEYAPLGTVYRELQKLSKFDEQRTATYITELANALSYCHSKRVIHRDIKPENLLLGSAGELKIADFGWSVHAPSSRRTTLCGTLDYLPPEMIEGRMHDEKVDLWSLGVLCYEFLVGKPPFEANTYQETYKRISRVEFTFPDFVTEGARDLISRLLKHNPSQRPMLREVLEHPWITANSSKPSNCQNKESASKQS
Description: as §2, §3

EGFR = target: T8, EGFR (Homo sapiens, UniProt P00533); test: ADP-Glo kinase assay, EGFR; format: biochemical
T8 construct: purchased Promega

[5] = target: T9, IGF1R (insulin-like growth factor 1 receptor) (Homo sapiens, UniProt P08069); test: ADP-Glo kinase assay, IGF1R; format: biochemical
T9 construct: purchased Promega
Description: as §2, §3

K562 cells [6] = test: Cell cycle analysis (propidium iodide, flow cytometry); format: cell-based; details: 48 h
Description: Tumor cells were seeded on a 6-well plate at a density of 400,000 per well for K562. Test compounds 5, 14 and 15 were added at concentrations of 1, 5 and 10 μM in duplicate for 48 h. The methodology and analysis of the obtained data were performed as described in our prior work.
As shown above, compounds 5, 14 and 15 had significant antiproliferative activities, which is why their influences on the cell cycle and apoptosis level were determined, with the aim of understanding whether these effects are cytostatic or cytotoxic. In the cell cycle experiments, K562 cells were used. […] For the determination of changes in the distribution of cells in the phases of the cell cycle, the widely employed method of staining the cells with propidium iodide was used.

PDGFRβ = target: T10, PDGFRβ (Homo sapiens, UniProt P09619); test: ADP-Glo kinase assay, PDGFRβ; format: biochemical
T10 construct: purchased Promega
Description: as §2, §3

[7] = tested on: RPMI 1788 cells (B lymphocyte, human); test: MTT cell proliferation assay, normal RPMI 1788 cells; format: cell-based; details: normal human lymphoblastoid cells RPMI 1788, 72 h of exposition, read-out: Anti-proliferative activity IC50, RPMI 1788
Summary of the method: as §1

K562 cells [8] = test: Annexin V-FITC/PI apoptosis assay; format: cell-based; details: 48 h
Description: K562 tumor cells were plated on a 6-well plate at a density of 400,000 per well. Test compounds 5, 14 and 15 were added at concentrations of 1, 5 and 10 μM in duplicate for 48 h. The methodology and analysis of the obtained data were performed as described in our prior work.
The effects of compounds 5, 14 and 15 on cell apoptosis were examined using the Annexin V-FITC Kit (Beckman Coulter, Brea, CA, USA) according to the protocols provided. The Annexin V-FITC Kit is an apoptosis detection kit based on the binding properties of annexin V to phosphatidylserine (PS) and on the DNA intercalating capability of propidium iodide (PI). K562 cells were treated with compound 5, 14 and 15 at 1, 5 and 10 μM for 48 h, after which annexin V/PI binding was measured by flow cytometry.

K562 cell line = test: ROS determination (DCFH-DA, flow cytometry); format: cell-based; details: 48 h
Description: The redox status was assessed using the K562 cell line. […] Then, the cells were washed to remove the 2′,7′-dichlorodihydrofluorescein diacetate by centrifugation at 1000 rpm for 5 min. The measurements were conducted using a Cytomics FC500 Beckman Coulter flow cytometer (FL1 channel for DCF).

[9] = tested on: MCF-7 (breast adenocarcinoma); test: MTT cell proliferation assay, MCF-7; format: cell-based; details: Homo sapiens, MCF7, MCF-7, 72 h of exposition, read-out: Anti-proliferative activity IC50, MCF-7
Summary of the method: as §1

T2 sequence (P35968 20-1356): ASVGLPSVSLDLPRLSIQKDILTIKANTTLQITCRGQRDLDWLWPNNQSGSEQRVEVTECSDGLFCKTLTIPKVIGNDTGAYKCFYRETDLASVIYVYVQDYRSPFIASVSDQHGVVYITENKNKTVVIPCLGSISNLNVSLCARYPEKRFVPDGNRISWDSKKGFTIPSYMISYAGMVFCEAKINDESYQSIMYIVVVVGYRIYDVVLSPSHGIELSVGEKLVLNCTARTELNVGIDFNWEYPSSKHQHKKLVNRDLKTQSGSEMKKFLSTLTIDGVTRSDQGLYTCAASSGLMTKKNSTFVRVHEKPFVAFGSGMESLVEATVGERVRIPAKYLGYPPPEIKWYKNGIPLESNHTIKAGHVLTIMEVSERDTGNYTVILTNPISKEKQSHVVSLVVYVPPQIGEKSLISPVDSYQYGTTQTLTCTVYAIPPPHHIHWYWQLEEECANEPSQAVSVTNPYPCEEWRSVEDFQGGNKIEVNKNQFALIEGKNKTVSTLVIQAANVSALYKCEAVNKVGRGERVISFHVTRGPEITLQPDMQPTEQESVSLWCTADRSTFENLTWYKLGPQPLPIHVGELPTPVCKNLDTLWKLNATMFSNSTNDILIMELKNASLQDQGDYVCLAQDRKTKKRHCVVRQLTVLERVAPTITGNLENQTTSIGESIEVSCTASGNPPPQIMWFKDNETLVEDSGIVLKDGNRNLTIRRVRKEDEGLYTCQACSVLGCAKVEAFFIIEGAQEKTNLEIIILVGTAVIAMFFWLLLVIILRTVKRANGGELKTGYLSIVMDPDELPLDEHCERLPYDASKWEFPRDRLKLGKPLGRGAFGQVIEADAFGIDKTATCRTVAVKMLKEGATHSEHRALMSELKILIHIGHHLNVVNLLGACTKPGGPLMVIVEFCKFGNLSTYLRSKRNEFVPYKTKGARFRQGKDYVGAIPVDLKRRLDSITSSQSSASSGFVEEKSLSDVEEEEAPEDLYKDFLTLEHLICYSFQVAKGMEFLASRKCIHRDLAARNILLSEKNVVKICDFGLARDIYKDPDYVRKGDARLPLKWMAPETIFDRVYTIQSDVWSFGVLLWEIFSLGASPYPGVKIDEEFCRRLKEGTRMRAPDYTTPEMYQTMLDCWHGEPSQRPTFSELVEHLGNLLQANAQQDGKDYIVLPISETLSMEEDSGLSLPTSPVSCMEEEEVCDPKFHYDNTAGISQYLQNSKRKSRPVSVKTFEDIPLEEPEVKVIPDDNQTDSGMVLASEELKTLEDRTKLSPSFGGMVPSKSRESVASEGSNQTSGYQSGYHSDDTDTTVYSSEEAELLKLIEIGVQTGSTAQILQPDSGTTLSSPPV
T9 sequence (P08069 31-1367): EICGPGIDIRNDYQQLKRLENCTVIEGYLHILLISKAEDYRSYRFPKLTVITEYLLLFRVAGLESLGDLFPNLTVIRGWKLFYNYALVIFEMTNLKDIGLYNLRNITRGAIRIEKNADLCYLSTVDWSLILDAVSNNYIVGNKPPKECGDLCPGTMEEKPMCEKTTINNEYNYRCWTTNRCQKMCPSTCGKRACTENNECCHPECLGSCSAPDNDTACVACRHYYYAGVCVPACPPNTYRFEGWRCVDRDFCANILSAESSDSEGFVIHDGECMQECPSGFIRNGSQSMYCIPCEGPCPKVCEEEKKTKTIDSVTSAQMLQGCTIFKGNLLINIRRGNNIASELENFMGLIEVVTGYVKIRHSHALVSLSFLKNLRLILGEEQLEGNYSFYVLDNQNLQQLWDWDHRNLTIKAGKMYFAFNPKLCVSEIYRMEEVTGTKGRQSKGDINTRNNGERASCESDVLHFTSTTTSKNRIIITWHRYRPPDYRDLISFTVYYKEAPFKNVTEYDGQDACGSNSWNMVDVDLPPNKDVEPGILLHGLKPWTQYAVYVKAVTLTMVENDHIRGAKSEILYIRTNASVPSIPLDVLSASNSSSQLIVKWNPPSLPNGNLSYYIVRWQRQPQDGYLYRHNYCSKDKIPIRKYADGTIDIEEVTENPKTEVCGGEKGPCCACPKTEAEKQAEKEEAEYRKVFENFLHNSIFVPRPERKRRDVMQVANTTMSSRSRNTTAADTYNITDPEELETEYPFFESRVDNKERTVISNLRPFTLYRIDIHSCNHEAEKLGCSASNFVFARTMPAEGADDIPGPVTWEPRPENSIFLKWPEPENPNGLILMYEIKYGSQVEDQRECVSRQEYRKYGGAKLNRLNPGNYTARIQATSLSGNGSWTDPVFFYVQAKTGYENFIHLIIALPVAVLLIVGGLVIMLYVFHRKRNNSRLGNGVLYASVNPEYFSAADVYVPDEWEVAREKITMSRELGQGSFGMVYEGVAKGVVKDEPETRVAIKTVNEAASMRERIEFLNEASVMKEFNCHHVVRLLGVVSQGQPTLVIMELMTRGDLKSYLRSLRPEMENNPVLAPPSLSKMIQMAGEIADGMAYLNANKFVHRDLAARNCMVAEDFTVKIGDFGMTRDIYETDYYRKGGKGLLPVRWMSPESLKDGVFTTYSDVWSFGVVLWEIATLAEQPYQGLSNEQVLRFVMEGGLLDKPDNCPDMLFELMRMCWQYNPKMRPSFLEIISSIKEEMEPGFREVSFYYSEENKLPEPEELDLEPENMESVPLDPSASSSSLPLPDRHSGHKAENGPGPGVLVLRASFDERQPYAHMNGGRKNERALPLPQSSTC
T5 sequence (Q96GD4 whole entry): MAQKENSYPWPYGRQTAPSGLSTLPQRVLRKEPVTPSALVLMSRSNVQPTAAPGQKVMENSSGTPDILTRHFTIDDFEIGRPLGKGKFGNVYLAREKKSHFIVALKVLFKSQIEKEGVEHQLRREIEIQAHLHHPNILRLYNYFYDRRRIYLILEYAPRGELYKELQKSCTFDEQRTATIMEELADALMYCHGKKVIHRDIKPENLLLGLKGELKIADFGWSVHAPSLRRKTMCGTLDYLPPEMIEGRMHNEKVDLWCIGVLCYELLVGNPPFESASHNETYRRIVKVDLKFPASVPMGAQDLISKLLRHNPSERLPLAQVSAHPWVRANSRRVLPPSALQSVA
T10 sequence (P09619 33-1106): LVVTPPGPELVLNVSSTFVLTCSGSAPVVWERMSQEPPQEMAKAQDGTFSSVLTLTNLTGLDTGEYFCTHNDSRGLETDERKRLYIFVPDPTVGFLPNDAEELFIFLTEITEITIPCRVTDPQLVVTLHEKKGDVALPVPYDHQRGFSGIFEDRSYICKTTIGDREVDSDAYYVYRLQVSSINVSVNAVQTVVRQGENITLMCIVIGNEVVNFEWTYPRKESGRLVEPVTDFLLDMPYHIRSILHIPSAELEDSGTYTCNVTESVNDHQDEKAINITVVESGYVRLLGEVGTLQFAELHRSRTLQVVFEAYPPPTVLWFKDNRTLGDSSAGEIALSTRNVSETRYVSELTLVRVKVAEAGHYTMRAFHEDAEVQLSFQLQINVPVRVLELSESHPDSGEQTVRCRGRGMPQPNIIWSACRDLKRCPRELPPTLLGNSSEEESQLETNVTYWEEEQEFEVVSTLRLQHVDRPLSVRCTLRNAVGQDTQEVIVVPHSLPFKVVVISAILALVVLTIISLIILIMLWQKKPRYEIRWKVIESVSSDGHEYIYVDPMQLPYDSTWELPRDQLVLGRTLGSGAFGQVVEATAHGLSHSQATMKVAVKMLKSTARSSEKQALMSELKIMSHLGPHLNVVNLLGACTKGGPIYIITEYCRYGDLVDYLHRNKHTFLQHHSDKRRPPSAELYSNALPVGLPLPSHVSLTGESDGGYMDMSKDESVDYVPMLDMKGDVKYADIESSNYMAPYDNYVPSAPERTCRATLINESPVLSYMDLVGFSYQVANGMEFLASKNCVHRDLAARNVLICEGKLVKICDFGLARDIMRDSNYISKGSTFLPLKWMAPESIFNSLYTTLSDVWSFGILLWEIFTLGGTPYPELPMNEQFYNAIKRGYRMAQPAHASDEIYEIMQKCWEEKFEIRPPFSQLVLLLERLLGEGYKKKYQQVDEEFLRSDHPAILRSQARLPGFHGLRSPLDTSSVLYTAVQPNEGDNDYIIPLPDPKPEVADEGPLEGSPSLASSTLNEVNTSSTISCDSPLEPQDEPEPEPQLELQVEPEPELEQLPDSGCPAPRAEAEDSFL

Compound `Cc1cn(-c2cc(NC(=O)c3cccc(C(=O)Nc4cccc(C(F)(F)F)c4)c3)cc(C(F)(F)F)c2)cn1` [Compound 5, N1-(3-(4-methyl-1H-imidazol-1-yl)-5-(trifluoromethyl)phenyl)-N3-(3-(trifluoromethyl)phenyl)isophthalamide] has an IC50 [1] of 3.42 ± 0.78 µM, an inhibition at 10 µM (PDGFRα) of 73% and an inhibition at 10 µM (KDR (VEGFR-2)) of 18%. It also gave an inhibition at 10 µM (HER2) of 33%, an IC50 (A549 (lung carcinoma)) greater than 50 µM and an IC50 [2] of 7.04 ± 0.29 µM. The IC50 [3] was 7.84 ± 2.61 µM, the IC50 ([3]; Homo sapiens, HepG2, 72 h) was 8.84 µM and the inhibition at 10 µM (HER4) was 0%. It also gave an inhibition at 10 µM (Aurora B) of 0%, an IC50 [4] of 17.8 ± 2.13 µM and an inhibition at 10 µM (InsR (insulin receptor)) of 0%. The inhibition at 10 µM (Aurora A) was 0%, the inhibition at 10 µM (EGFR) was 0% and the inhibition at 10 µM [5] was 0%. For the same compound, the “Apoptosis, % (cell cycle analysis)” value (K562 cells [6]; K562, 1 µM) was 14.56%, the “G1, %” value (K562 cells [6]; K562, 1 µM) was 37.92% and the “G2/M, %” value (K562 cells [6]; K562, 1 µM) was 45.08%. For the same compound, the “S, %” value (K562 cells [6]; K562, 1 µM) was 17.0% and 17.01%, the “Apoptosis, % (cell cycle analysis)” value (K562 cells [6]; K562, 5 µM) was 37.20% and the “G1, %” value (K562 cells [6]; K562, 5 µM) was 31.77%. The “G2/M, %” value (K562 cells [6]; K562, 5 µM) was 50.09%, the “S, %” value (K562 cells [6]; K562, 5 µM) was 18.14% and the “Apoptosis, % (cell cycle analysis)” value (K562 cells [6]; K562, 10 µM) was 53.50%. For the same compound, the “G1, %” value (K562 cells [6]; K562, 10 µM) was 29.86%, the “G2/M, %” value (K562 cells [6]; K562, 10 µM) was 38.0% and 38.08% and the “S, %” value (K562 cells [6]; K562, 10 µM) was 32.05%. The inhibition at 10 µM (PDGFRβ) was 18%, the IC50 [7] was 2.86 ± 0.09 µM and the “normal live cells (living cells)” value (K562 cells [8]; K562, 1 µM) was 79.72%. The early apoptotic cells (K562 cells [8]; K562, 5 µM) was 29.07%, the late apoptotic cells (K562 cells [8]; K562, 5 µM) was 19.93% and the “normal live cells (living cells)” value (K562 cells [8]; K562, 5 µM) was 48.87%. For the same compound, the necrotic cells (K562 cells [8]; K562, 10 µM) was 16.38%, the “normal live cells (living cells)” value (K562 cells [8]; K562, 10 µM) was 38.66% and the “ROS Level, % of Control” value (K562 cell line; K562, 5 µM) was 76.76 % of Control. The “ROS Level, % of Control” value (K562 cell line; K562, 10 µM) was 64.66 % of Control, the “ROS Level, % of Control” value (K562 cell line; K562, 20 µM, 20 µM) was 62.9 % of Control and the IC50 [9] was 4.91 ± 1.27 µM.
